These results are taken from patent publication US11566007B2, “Ras inhibitors” (Revolution Medicines, Inc., priority 2019, dated 2023).

For test [1], the target named is NRAS WT (Homo sapiens (Human), UniProt P01111+P62937). Briefly: Ras-Raf (BRAF RBD) disruption / FRET / MOA assay, NRAS WT. The conditions noted are these: read-out: IC50* NRAS WT FRET data. It is filed as biochemical. A digest of the protocol:
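Compounds were tested as a 10-point 3-fold dilution series from 30 μM final for their ability to drive ternary complex formation between nucleotide-loaded Ras and cyclophilin A, displacing the BRAF RBD. After 3 h at 25° C., anti-His Eu-W1024 (10 nM) and anti-GST allophycocyanin (50 nM) were added for 1.5 h. A TR-FRET ratio decrease versus DMSO gave IC50.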

The subject of test [2] is NCI-H358 (K-Ras G12C). Briefly: CellTiter-Glo cell viability assay, NCI-H358. The test is classed as cell-based, human. The conditions noted are these: class symbols. A digest of the protocol: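 Cells seeded, compound added directly, 5-day exposure. Plates to RT ~30 min, CellTiter-Glo luminescence read. Normalized to DMSO avg (x100); 4-parameter logistic fit.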
For test [3], the system named is NCI-H358 cells (K-Ras G12C). Briefly: Potency assay: pERK in NCI-H358 cells. It is filed as cell-based, human. The conditions noted are these: H358 KRAS G12C, read-out: pERK EC50. The essentials:
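pERK decrease read by AlphaLISA SureFire p-ERK1/2 or In-Cell Western after 4 h compound exposure at 37 °C, 5% CO2.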

Test [4] deals with KRAS G12V (Homo sapiens (Human), UniProt P01116+P62937, G12V). Briefly: Ras-Raf (BRAF RBD) disruption / FRET / MOA assay, KRAS G12V. The conditions noted are these: read-out: IC50* KRAS G12V FRET data. It is filed as biochemical. A digest of the protocol: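 TR-FRET read-out: a drop in ratio relative to DMSO wells marks disruption of the Ras:RAF complex, reported as IC50. Compounds (3-fold series, 10 points, top 30 μM final) incubated 3 h at 25° C before Eu-anti-His 10 nM and APC-anti-GST 50 nM, 1.5 h more.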
Sequence of KRAS G12V (P01116-2 other isoform, or with tags, fused parts or gaps G12V): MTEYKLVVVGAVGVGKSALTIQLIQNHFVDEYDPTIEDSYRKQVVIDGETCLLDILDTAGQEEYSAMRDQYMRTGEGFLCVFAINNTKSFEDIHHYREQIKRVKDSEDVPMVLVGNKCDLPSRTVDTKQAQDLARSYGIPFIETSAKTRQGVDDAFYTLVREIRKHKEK
Sequence of KRAS G12V (P62937 whole entry): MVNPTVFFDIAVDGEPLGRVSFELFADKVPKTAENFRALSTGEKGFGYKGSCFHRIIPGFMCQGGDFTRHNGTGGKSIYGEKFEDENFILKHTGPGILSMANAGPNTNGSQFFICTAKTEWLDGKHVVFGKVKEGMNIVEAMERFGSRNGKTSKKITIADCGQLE

[5] abbreviates: Homo sapiens, NCI-H358, 120 h, NCI-H358, 5-day treatment, read-out: Additional H358 Cell Viability assay data (K-Ras G12C, IC50).

“And” between values parts separate entries of the source, which are not always exact repeats. Equal values may be shown once. Read-outs that look alike come from different tables or passages of the source.

Sequence of NRAS WT (P01111 whole entry): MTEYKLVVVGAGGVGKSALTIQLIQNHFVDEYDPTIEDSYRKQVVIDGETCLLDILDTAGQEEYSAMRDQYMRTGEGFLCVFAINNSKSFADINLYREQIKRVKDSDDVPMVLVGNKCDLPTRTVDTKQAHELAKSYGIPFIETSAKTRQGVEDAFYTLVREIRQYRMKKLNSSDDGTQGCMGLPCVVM
Sequence of NRAS WT (P62937 whole entry): as the sequence (P62937 whole entry) above

For the compound `C=CC(=O)N1CC[C@H](C(=O)N(C)[C@H](C(=O)N[C@H]2Cc3cc(O)cc(c3)-c3ccc4c(c3)c(c(-c3cccnc3[C@H](CC)OC)n4CC)CC(C)(C)COC(=O)[C@@H]3CCCN(N3)C2=O)C(C)C)C1` (atropisomer, axis not shown) [Example A181], the IC50 in test [1] is 100 to 1000 nM; in test [2] (setting [5]), 0.01 to 0.1 µM; in test [4], 100 to 1000 nM and 1000 to 10000 nM. Further, the EC50 in test [3] (Homo sapiens, NCI-H358) was less than 5 µM.
Regarding `C=CC(=O)N1CC[C@H](C(=O)N(C)[C@H](C(=O)N[C@H]2Cc3nc(ns3)-c3ccc4c(c3)c(c(-c3cccnc3[C@H](C)OC)n4CC)CC(C)(C)COC(=O)[C@@H]3CCCN(N3)C2=O)C(C)C)C1` (atropisomer, axis not shown) [Example A202], the IC50 in test [1] was 1000 to 10000 nM; in test [2] (setting [5]), 0.01 to 0.1 µM; in test [4] it was greater than 10000 nM. Further, the EC50 in test [3] (Homo sapiens, NCI-H358) was less than 5 µM.
Regarding `C=CC(=O)N1CC[C@H](C(=O)N(C)[C@H](C(=O)N[C@H]2Cc3cc(O)cc(c3)-c3ccc4c(c3)c(c(-c3cccnc3[C@@H](OC)C3CC3)n4CC)CC(C)(C)COC(=O)[C@@H]3CCCN(N3)C2=O)C(C)C)C1` (atropisomer, axis not shown) [Example A207], the half-maximal inhibitory concentration (IC50) in test [1] was in the range of 100 to 1000 nM; in test [2] (NCI-H358, 5-day treatment, read-out: Additional H358 Cell Viability assay data (K-Ras G12C, IC50)), 0.01 to 0.1 µM. Besides, the EC50 in test [3] was less than 5 µM.
Regarding `C=CC(=O)N1CC[C@H](C(=O)N(C)[C@H](C(=O)N[C@H]2Cc3cc(O)cc(c3)-c3ccc4c(c3)c(c(-c3cccnc3[C@@H]3CCCO3)n4CC)CC(C)(C)COC(=O)[C@@H]3CCCN(N3)C2=O)C(C)C)C1` (atropisomer, axis not shown) [Example A281], the IC50 in test [1] is 100 to 1000 nM; in test [2] (setting [5]) it was 0.01 to 0.1 µM; in test [4], 100 to 1000 nM. Besides, the EC50 in test [3] (Homo sapiens, NCI-H358) was less than 5 µM.
`C=CC(=O)N1CC[C@H](C(=O)N(C)[C@H](C(=O)N[C@H]2Cc3nc(n(C)n3)-c3ccc4c(c3)c(c(-c3cccnc3[C@H](C)OC)n4CC)CC(C)(C)COC(=O)[C@@H]3CCCN(N3)C2=O)C(C)C)C1` (atropisomer, axis not shown) [Example A314]: the IC50 in test [1] was 1000 to 10000 nM; in test [2] (setting [5]), 0.1 to 1 µM; in test [4] it was 1000 to 10000 nM. The EC50 in test [3] (Homo sapiens, NCI-H358) was less than 5 µM.
For the compound `C=CC(=O)N1CC[C@H](C(=O)N(C)[C@H](C(=O)N[C@H]2Cc3csc(n3)-c3ccc4c(c3)c(c(-c3cccnc3[C@H](C)OC)n4CC)CC(C)(C)COC(=O)[C@@H]3CCCN(N3)C2=O)C(C)C)C1` (atropisomer, axis not shown) [Example A330], the IC50 in test [1] was in the range of 1000 to 10000 nM; in test [2] (setting [5]) it was 0.01 to 0.1 µM; in test [4], 1000 to 10000 nM. In test [3] (Homo sapiens, NCI-H358), the EC50 is less than 5 µM.
As to `C=CC(=O)N1CC[C@]2(C1)CN(C(=O)N(C)[C@H](C(=O)N[C@H]1Cc3nc(cs3)-c3ccc4c(c3)c(c(-c3cccnc3[C@H](C)OC)n4CC)CC(C)(C)COC(=O)[C@@H]3CCCN(N3)C1=O)C(C)C)CCO2` (atropisomer, axis not shown) [Example A354], the IC50 in test [1] was 100 to 1000 nM; in test [2] (setting [5]), 0.01 to 0.1 µM; in test [4], 100 to 1000 nM. Also, the EC50 in test [3] (Homo sapiens, NCI-H358) was less than 5 µM.
For the compound `C=CC(=O)N1CC[C@@]2(C1)OCN([C@H](C(=O)N[C@H]1Cc3cccc(c3)-c3ccc4c(c3)c(c(-c3cccnc3[C@H](C)OC)n4CC)CC(C)(C)COC(=O)[C@@H]3CCCN(N3)C1=O)C(C)C)C2=O` (atropisomer, axis not shown) [Example A358], the IC50 in test [1] lay in the range of 100 to 1000 nM; in test [2] (setting [5]), 0.01 to 0.1 µM; in test [4], 1000 to 10000 nM. Further, the EC50 in test [3] (Homo sapiens, NCI-H358) was less than 5 µM.
Consider `CO[C@@H](C)c1ncccc1-c1c2c3cc(ccc3n1CC(F)(F)F)-c1csc(n1)C[C@H](NC(=O)CCOC1CN(C(=O)C#CC(C)(C)N3CCC3)C1)C(=O)N1CCC[C@H](N1)C(=O)OCC(C)(C)C2` (atropisomer, axis not shown) [Example A363], for which the figures for the IC50 in test [1], in test [2] (setting [5]) and in test [4] were 1000 to 10000 nM, 0.01 to 0.1 µM and 1000 to 10000 nM, respectively. For the same compound, the EC50 in test [3] (Homo sapiens, NCI-H358) was less than 5 µM.
In the case of `C=CC(=O)N(C)C[C@H]1CCN1C(=O)N(C)[C@H](C(=O)N[C@H]1Cc2nc(cs2)-c2ccc3c(c2)c(c(-c2cccnc2[C@H](C)OC)n3CC)CC(C)(C)COC(=O)[C@@H]2CCCN(N2)C1=O)C(C)C` (atropisomer, axis not shown) [Example A369], the IC50 in test [1] lay within 100 to 1000 nM; in test [2] (setting [5]), 0.01 to 0.1 µM; in test [4], 100 to 1000 nM. The EC50 in test [3] (Homo sapiens, NCI-H358) was less than 5 µM.
With `C=CC(=O)N1CC[C@H](C(=O)N(C)[C@H](C(=O)N[C@H]2Cc3cccc(c3)-c3ccc4c(c3)c(c(-c3cccnc3[C@H](C)OC)n4CC)CC(C)(C)COC(=O)[C@@H]3CCCN(N3)C2=O)C(C)C)[C@H]1C` (atropisomer, axis not shown) [Example A373], the IC50 in test [1] fell in the range of 1000 to 10000 nM; in test [2] (setting [5]), 0.01 to 0.1 µM; in test [4], 100 to 1000 nM. In addition, the EC50 in test [3] (Homo sapiens, NCI-H358) is less than 5 µM.
For the compound `CO[C@@H](C)c1ncccc1-c1c2c3cc(ccc3n1CC(F)(F)F)-c1cc(cc(C(F)F)c1)C[C@H](NC(=O)[C@@H](COC1CN(C(=O)C#CC(C)(C)N(C)C)C1)C(C)C)C(=O)N1CCC[C@H](N1)C(=O)OCC(C)(C)C2` (atropisomer, axis not shown) [Example A374], the half-inhibitory concentration (IC50) in test [1] is greater than 10000 nM; in test [2] (setting [5]), 0.01 to 0.1 µM; in test [4], greater than 10000 nM. For the same compound, in test [3] (Homo sapiens, NCI-H358), the EC50 was less than 5 µM.
For `CCn1c(-c2cccnc2[C@H](C)OC)c2c3cc(ccc31)-c1csc(n1)C[C@H](NC(=O)CCO[C@H]1CCN(C(=O)C#CC(C)(C)N3CCC3)C1)C(=O)N1CCC[C@H](N1)C(=O)OCC(C)(C)C2` (atropisomer, axis not shown) [Example A381], the results for the IC50 in test [1], in test [2] (setting [5]) and in test [4] were 1000 to 10000 nM, 0.01 to 0.1 µM and 1000 to 10000 nM, respectively. Besides, in test [3] (Homo sapiens, NCI-H358), the EC50 is less than 5 µM.
Turning to `C=CC(=O)N(C)C[C@@H]1CCN1C(=O)N(C)[C@H](C(=O)N[C@H]1Cc2nc(cs2)-c2ccc3c(c2)c(c(-c2cccnc2[C@H](C)OC)n3CC)CC(C)(C)COC(=O)[C@@H]2CCCN(N2)C1=O)C(C)C` (atropisomer, axis not shown) [Example A390], the IC50 lay within 1000 to 10000 nM in test [1], 0.1 to 1 µM in test [2] (setting [5]) and 1000 to 10000 nM in test [4]. In test [3] (Homo sapiens, NCI-H358), the EC50 is less than 5 µM.
In the case of `C=CC(=O)N1CC[C@H](C(=O)N(C)[C@H](C(=O)N[C@H]2Cc3cccc(c3)-c3ccc4c(c3)c(c(-c3cc(C5CN(C)C5)cnc3[C@H](C)OC)n4CC)CC(C)(C)COC(=O)[C@@H]3CCCN(N3)C2=O)C(C)C)C1` (atropisomer, axis not shown) [Example A392], the IC50 fell in the range of 1000 to 10000 nM in test [1], 0.01 to 0.1 µM in test [2] (setting [5]) and 1000 to 10000 nM in test [4]. Also, the EC50 in test [3] (Homo sapiens, NCI-H358) was less than 5 µM.
As to `C=CC(=O)N1CC[C@H](C(=O)N(C)[C@H](C(=O)N[C@H]2Cc3cccc(n3)-c3ccc4c(c3)c(c(-c3cccnc3[C@H](C)OC)n4CC)CC(C)(C)COC(=O)[C@@H]3CCCN(N3)C2=O)C(C)C)C1` (atropisomer, axis not shown) [Example A442], the IC50 was greater than 10000 nM in test [1], 0.01 to 0.1 µM in test [2] (setting [5]) and greater than 10000 nM in test [4]. Also, in test [3] (Homo sapiens, NCI-H358), the EC50 is less than 5 µM.
As to `C=CC(=O)N1CC[C@H](C(=O)N(C)[C@H](C(=O)N[C@H]2Cc3cc(O)cc(c3)-c3ccc4c(c3)c(c(-c3ncn(C)c3[C@H](C)OC)n4CC)CC(C)(C)COC(=O)[C@@H]3CCCN(N3)C2=O)C(C)C)C1` [Example A301], the IC50 in test [2] (Homo sapiens, NCI-H358, 120 h, read-out: Additional H358 Cell Viability assay data (K-Ras G12C, IC50, uM), NCI-H358, 5-day treatment) was 0.1 to 1 µM; in test [4], 1000 to 10000 nM. Moreover, in test [3] (Homo sapiens, NCI-H358), the EC50 is less than 5 µM.
